Reference: patent US11578013B2, “Nitrification inhibitors” (Lincoln University, priority 2020, dated 2023)

What was measured:
[1] = test system: nitrification in the soil; assay: Soil column study at low rates (Study 3-14): nitrate-N; conditions: day 60
Procedure: To determine the effect of treating the soil with 4-Ethynylanisole at low rates, e.g. at 1 kg/ha and 2 kg/ha, soil column studies were conducted. The experiment was conducted in cylindrical PVC containers (Diameter=186 mm, Height=240 mm). The containers were filled with soil to half of the container's height (120 mm), leaving 120 mm headspace. The soil was Templeton sandy loam collected from Lincoln University Research Dairy Farm. It was screened using a 5 mm sieve and air-dried to the required moisture level and packed to bulk density of 1 g/cm3.
The experiment was conducted under controlled conditions. The temperature of the soil columns were maintained at around 12° C. by using a water bath to control the temperature.
The treatments included Control (Water), Control (animal urine), Control (urine+DMSO), Control (Urine+DCD at 10 kg/ha), Urine+4-Ethynylanisole (at 1 kg/ha) in DMSO, and Urine+4-Ethynylanisole (at 2 kg/ha) in DMSO. Synthetic cow urine was applied at 700 kg N/ha (comprising about 87% urea-N and 13% glycine-N), and 4-Ethynylanisole was applied at 1 or 2 kg/ha equivalent. The treatments were mixed with the soil. Soil moisture was adjusted to 100% field capacity (FC) and maintained between 80 and 100% FC over the duration of the experiment. Soil sampling was conducted on Days 1, 7, 14, 30, and 60. The soil samples were analysed for mineral N.

[2] = test system: nitrification; assay: Table 1 summary: compounds found to work or not work as nitrification inhibitors, Inhib(%); parameters: concentration or dose not given beside the values; conditions: test and rate not given
Procedure: The phenotypic screening involved assessing the nitrification inhibition potency of the selected 5000 compounds against a key ammonia oxidizing bacterium responsible for ammonia oxidation in the soil, Nitrosomonas europaea, in 96-well microtiter plates. N. europaea cells were grown in the presence of an ammonium source, and the potential of putative nitrification inhibitors to inhibit the production of nitrite (NO2) was measured relative to untreated cells.
A summary of selected compounds initially found to either work or not work as nitrification inhibitors is detailed in Table 1 below.

In the case of C#Cc1ccc(OC)cc1 [4-Ethynylanisole, 1-ethynyl-4-methoxybenzene], the “inhibiting nitrate production compared with DCD” value ([1]; 1 or 2 kg/ha vs DCD at 10 kg/ha) is reported as “much more potent than DCD”, the “soil nitrate-N concentration compared with urine control” value ([1]; 1 or 2 kg/ha) is reported as “significantly lower nitrate-N concentrations” and the “Inhib(%)” value [2] is reported as 100%.
